From US20250382301A1 (Arizona Board of Regents on Behalf of the University of …, priority 2022, published 2025)

System: WNT signaling (TopGFP reporter in Human Colonic Epithelial Cells (HCEC))
Experiment: WNT Reporter Assay (TopGFP reporter)
Format: cell-based
Conditions: stimulated with 10 μM CHIR99021, 24 hours, TopGFP/mCherry
Procedure: WNT Reporter Assay: Human Colonic Epithelial Cells (HCEC) were cultured using 1×DMEM supplemented with 1% penicillin/streptomycin, 1% Glutamax, and 10% fetal bovine serum in 5% CO2 at 37° C. These cells were previously engineered to express the TopGFP reporter (Addgene #24304) using second generation lentiviral techniques. For the Wnt reporter assay, cells were seeded at 2000 cells per well in a 384-well black screenstar imaging microplates (Greiner #781866) and allowed to adhere overnight. The following day cells were stimulated to induce the Wnt pathway using 10 μM CHIR99021 (Selleck #S1263). […] Cells were incubated for 24 hours before fixing for 30 minutes with 4% paraformaldehyde/sucrose solution. Cells were permeabilized with 0.1% triton-x in PBS for 10 minutes and stained for DAPI for 30 minutes. Plates were imaged on a Nikon Ti2 Eclipse fluorescent microscope for DAPI, GFP, and mCherry. Using Nikon Elements software for analysis, nuclei were segmented based on DAPI and mean object intensity per cell for both TopGFP and the internal control (mCherry) was measured. To calculate the amount of Wnt activity, we took the mean intensity of TopGFP and divided it by the mean intensity of mCherry per cell to normalize individual cells. Curves and EC50s were plotted and calculated using Graphpad Prism software.

Compound | EC50 (Homo sapiens) [nM] | EC50 [nM]
Nc1cc(-c2ccc3ncnc(N4[C@@H]5CC[C@H]4CN(c4ccccn4)C5)c3c2)ccn1 [Compound 54, 4-(4-((1R,5S)-3-(pyridin-2-yl)-3,8-diazabicyclo[3.2.1]octan-8-yl)quinazolin-6-yl)pyridin-2-amine] | 100 to 1000 | 
Nc1cc(-c2ccc3ncnc(N4CCC5(CCN(c6ccccn6)C5)CC4)c3c2)ccn1 [Compound 65, 4-(4-(2-(pyridin-2-yl)-2,8-diazaspiro[4.5]decan-8-yl)quinazolin-6-yl)pyridin-2-amine] | < 100 | 
c1ccc(N2CCN(c3ncnc4ccc(-c5c[nH]c6ncccc56)cc34)CC2)nc1 [Compound 17, 4-(4-(pyridin-2-yl)piperazin-1-yl)-6-(1H-pyrrolo[2,3-b]pyridin-3-yl)quinazoline] | < 100 | 
Nc1cc(-c2ccc3nccc(N4CCN(c5ccccc5)CC4)c3c2)ccn1 [Compound 25, 4-(4-(4-phenylpiperazin-1-yl)quinolin-6-yl)pyridin-2-amine] | < 100 | 
Nc1cc(-c2ccc3nccc(N4CCN(c5ccccn5)CC4)c3c2)ccn1 [Compound 29] | < 100 | 
C[C@H]1CN(c2ccccn2)CCN1c1ncnc2ccc(-c3ccnc(N)c3)cc12 [Compound 45, (S)-4-(4-(2-methyl-4-(pyridin-2-yl)piperazin-1-yl)quinazolin-6-yl)pyridin-2-amine] | < 100 | 
Nc1cc(-c2ccc3ncnc(N4CCC5(CCN(c6ccccn6)CC5)C4)c3c2)ccn1 [Compound 64, 4-(4-(8-(pyridin-2-yl)-2,8-diazaspiro[4.5]decan-2-yl)quinazolin-6-yl)pyridin-2-amine] | 100 to 1000 | 
6-(1-methyl-1H-pyrazol-3-yl)-4-(4-(5-(trifluoromethyl)pyridin-2-yl)piperazin-1-yl)pyrido[3,2-d]pyrimidine [Compound 21] |  | > 1000
Nc1cc(-c2ccc3ncnc(N4CCN(c5ccncn5)CC4)c3c2)ccn1 [Compound 9, 4-(4-(4-(pyrimidin-4-yl)piperazin-1-yl)quinazolin-6-yl)pyridin-2-amine] | 100 to 1000 | 
Nc1cc(-c2ccc3ncnc(N4CCC(c5ccccc5)CC4)c3c2)ccn1 [Compound 51, 4-(4-(4-phenylpiperidin-1-yl)quinazolin-6-yl)pyridin-2-amine] | 100 to 1000 | 

More lines, now with the values ahead:

EC50 (Homo sapiens) [nM] | EC50 [nM] | Compound
< 100 |  | Nc1cc(-c2ccc3ncnc(N4CCN(c5ccccc5)CC4)c3n2)ccn1 [Compound 4, 4-(4-(4-phenylpiperazin-1-yl)pyrido[3,2-d]pyrimidin-6-yl)pyridin-2-amine]
100 to 1000 |  | Nc1cc(-c2ccc3ncnc(N4CCN(Cc5ccc(F)cc5)CC4)c3c2)ccn1 [Compound 43, 4-(4-(4-(4-fluorobenzyl)piperazin-1-yl)quinazolin-6-yl)pyridin-2-amine]
100 to 1000 |  | Nc1cc(-c2ccc3ncnc(N4CCN(c5ccc(O)cc5)CC4)c3c2)ccn1 [Compound 27, 4-(4-(6-(2-aminopyridin-4-yl)quinazolin-4-yl)piperazin-1-yl)phenol]
100 to 1000 |  | Fc1ccccc1N1CCN(c2ncnc3ccc(-c4cnoc4)nc23)CC1 [Compound 40, 4-(4-(4-(2-fluorophenyl)piperazin-1-yl)pyrido[3,2-d]pyrimidin-6-yl)isoxazole]
< 100 |  | Nc1cc(-c2ccc3ncnc(N4CCN(c5cccnc5)CC4)c3c2)ccn1 [Compound 37, 4-(4-(4-(pyridin-3-yl)piperazin-1-yl)quinazolin-6-yl)pyridin-2-amine]
> 1000 |  | Nc1cc(-c2ccc3ncnc(N4CCN(C(=O)c5ccccc5F)CC4)c3c2)ccn1 [Compound 46, (4-(6-(2-aminopyridin-4-yl)quinazolin-4-yl)piperazin-1-yl)(2-fluorophenyl)methanone]
< 100 |  | Fc1ccc(CN2CCN(c3ncnc4ccc(-c5c[nH]c6ncccc56)cc34)CC2)cc1 [Compound 49, 4-(4-(4-fluorobenzyl)piperazin-1-yl)-6-(1H-pyrrolo[2,3-b]pyridin-3-yl)quinazoline]
< 100 |  | Nc1cc(-c2ccc3ncnc(N4CCN(c5ccc(C(F)(F)F)cn5)CC4)c3n2)ccn1 [Compound 16, 4-(4-(4-(5-(trifluoromethyl)pyridin-2-yl)piperazin-1-yl)pyrido[3,2-d]pyrimidin-6-yl)pyridin-2-amine]
> 1000 |  | Nc1cc(-c2ccc3ncnc(N4CCCN(c5ccccn5)CC4)c3c2)ccn1 [Compound 56, 4-(4-(4-(pyridin-2-yl)-1,4-diazepan-1-yl)quinazolin-6-yl)pyridin-2-amine]
< 100 |  | Nc1cc(-c2ccc3ncnc(N4CCN(c5ccccc5)CC4)c3c2)ccn1 [Compound 2, 4-(4-(4-phenylpiperazin-1-yl)quinazolin-6-yl)pyridin-2-amine]
< 100 |  | Nc1cc(-c2ccc3ncnc(N4CCN(c5ccccn5)CC4)c3c2)ccn1 [Compound 3, 4-(4-(4-(pyridin-2-yl)piperazin-1-yl)quinazolin-6-yl)pyridin-2-amine]
> 1000 |  | Nc1cc(-c2ccc3ncnc(N4C[C@H]5C[C@@H]4CN5c4ccccn4)c3c2)ccn1 [Compound 55, 4-(4-((1R,4R)-5-(pyridin-2-yl)-2,5-diazabicyclo[2.2.1]heptan-2-yl)quinazolin-6-yl)pyridin-2-amine]
> 1000 |  | Nc1cc(-c2ccc3ncnc(N4CCN(C5COC5)CC4)c3c2)ccn1 [Compound 11, 4-(4-(4-(oxetan-3-yl)piperazin-1-yl)quinazolin-6-yl)pyridin-2-amine]
